Data reported in ChEMBL document CHEMBL3046898, “Synthesis and characterization of flurbiprofen hydrazide derivatives as potential anti-HCV, anticancer and antimicrobial agents” (2013).
Calls of active or inactive are those of the source. The rule behind the calls is not given here.

How the values were obtained:
M14 = assay: Cytotoxicity against human M14 assessed as cell growth at 10 uM after 48 hrs by SRB assay; type: functional; details: M14, 48 h, read-out: Activity
A549 = assay: Cytotoxicity against human A549 assessed as cell growth at 10 uM after 48 hrs by SRB assay; type: functional; details: A549, 48 h, read-out: Activity
Micrococcus luteus = assay: Antibacterial activity against Micrococcus luteus at 6.25 to 200 ug/ml after 24 hrs by microwell dilution method; type: functional, organism-based
Staphylococcus cohnii = assay: Antibacterial activity against Staphylococcus cohnii at 6.25 to 200 ug/ml after 24 hrs by microwell dilution assay; type: functional, organism-based
OVCAR-4 = assay: Cytotoxicity against human OVCAR4 assessed as cell growth at 10 uM after 48 hrs by SRB assay; type: functional; details: OVCAR-4, 48 h, read-out: Activity
Hs-578T = assay: Cytotoxicity against human Hs 578T assessed as cell growth at 10 uM after 48 hrs by SRB assay; type: functional; details: read-out: Activity
ACHN = assay: Cytotoxicity against human ACHN assessed as cell growth at 10 uM after 48 hrs by SRB assay; type: functional; details: read-out: Activity
T47D = assay: Cytotoxicity against human T47D assessed as cell growth at 10 uM after 48 hrs by SRB assay; type: functional; details: read-out: Activity
NCI-H23 = assay: Cytotoxicity against human NCI-H23 assessed as cell growth at 10 uM after 48 hrs by SRB assay; type: functional; details: NCI-H23, 48 h, read-out: Activity
Aspergillus = assay: Antifungal activity against Aspergillus at 10 mg/ml after 72 hrs by disc diffusion method; type: functional, organism-based
Photorhabdus luminescens = assay: Antibacterial activity against Photorhabdus luminescens at 6.25 to 200 ug/ml after 24 hrs by microwell dilution method; type: functional, organism-based
Staphylococcus aureus = assay: Antibacterial activity against Staphylococcus aureus at 6.25 to 200 ug/ml after 24 hrs by microwell dilution assay; type: functional, organism-based
Klebsiella aerogenes = assay: Antibacterial activity against Enterobacter aerogenes at 10 mg/ml after 24 hrs by disc diffusion method; type: functional, organism-based
HL-60(TB) = assay: Cytotoxicity against human HL-60(TB) assessed as cell growth at 10 uM after 48 hrs by SRB assay; type: functional; details: HL-60, 48 h, read-out: Activity
NCI-H460 = assay: Cytotoxicity against human NCI-H460 assessed as cell growth at 10 uM after 48 hrs by SRB assay; type: functional; details: NCI-H460, 48 h, read-out: Activity
RPMI-8226 = assay: Cytotoxicity against human RPMI8226 assessed as cell growth at 10 uM after 48 hrs by SRB assay; type: functional; details: RPMI-8226, 48 h, read-out: Activity
UACC-257 = assay: Cytotoxicity against human UACC257 assessed as cell growth at 10 uM after 48 hrs by SRB assay; type: functional; details: UACC-257, 48 h, read-out: Activity
CCRF-CEM = assay: Cytotoxicity against human CCRF-CEM assessed as cell growth at 10 uM after 48 hrs by SRB assay; type: functional; details: read-out: Activity
HOP-62 = assay: Cytotoxicity against human HOP62 assessed as cell growth at 10 uM after 48 hrs by SRB assay; type: functional; details: HOP-62, 48 h, read-out: Activity
UO-31 = assay: Cytotoxicity against human UO31 assessed as cell growth at 10 uM after 48 hrs by SRB assay; type: functional; details: UO-31, 48 h, read-out: Activity
TK-10 = assay: Cytotoxicity against human TK10 assessed as cell growth at 10 uM after 48 hrs by SRB assay; type: functional; details: TK-10, 48 h, read-out: Activity
RXF 393 = assay: Cytotoxicity against human RXF393 assessed as cell growth at 10 uM after 48 hrs by SRB assay; type: functional; details: RXF 393, 48 h, read-out: Activity
OVCAR-3 = assay: Cytotoxicity against human OVCAR3 assessed as cell growth at 10 uM after 48 hrs by SRB assay; type: functional; details: OVCAR-3, 48 h, read-out: Activity
MDA-MB-468 = assay: Cytotoxicity against human MDA-MB-468 assessed as cell growth at 10 uM after 48 hrs by SRB assay; type: functional; details: MDA-MB-468, 48 h, read-out: Activity
Nakaseomyces glabratus = assay: Antifungal activity against Candida glabrata at 10 mg/ml after 48 hrs by disc diffusion method; type: functional, organism-based
IGROV-1 = assay: Cytotoxicity against human IGROV1 assessed as cell growth at 10 uM after 48 hrs by SRB assay; type: functional; details: IGROV-1, 48 h, read-out: Activity
LOX IMVI = assay: Cytotoxicity against human LOXIMVI assessed as cell growth at 10 uM after 48 hrs by SRB assay; type: functional; details: read-out: Activity
Candida parapsilosis = assay: Antifungal activity against Candida parapsilosis at 10 mg/ml after 48 hrs by disc diffusion method; type: functional, organism-based
Hepacivirus hominis = assay: Inhibition of HCV N-terminal His-tagged NS5B RNA dependent RNA polymerase expressed in Escherichia coli DH5alpha using poly rA/U12 as primer at 200 uM after 60 mins by liquid scintillation counting
Micrococcus lylae = assay: Antibacterial activity against Micrococcus lylae at 10 mg/ml after 24 hrs by disc diffusion method; type: functional, organism-based
U-251 = assay: Cytotoxicity against human U251 assessed as cell growth at 10 uM after 48 hrs by SRB assay; type: functional; details: U-251, 48 h, read-out: Activity
HCC 2998 = assay: Cytotoxicity against human HCC2998 assessed as cell growth at 10 uM after 48 hrs by SRB assay; type: functional; details: HCC 2998, 48 h, read-out: Activity
[1] = test system: Schwanniomyces occidentalis; assay: Antifungal activity against Schwanniomyces occidentalis at 10 mg/ml after 48 hrs by disc diffusion method; type: functional, organism-based
MDA-MB-435 = assay: Cytotoxicity against human MDA-MB-435 assessed as cell growth at 10 uM after 48 hrs by SRB assay; type: functional; details: MDA-MB-435, 48 h, read-out: Activity
Proteus vulgaris = assay: Antibacterial activity against Proteus vulgaris at 6.25 to 200 ug/ml after 24 hrs by microwell dilution method; type: functional, organism-based
EKVX = assay: Cytotoxicity against human EKVX assessed as cell growth at 10 uM after 48 hrs by SRB assay; type: functional; details: read-out: Activity
[2] = test system: Acinetobacter radioresistens; assay: Antibacterial activity against Acinetobacter radioresistens at 10 mg/ml after 24 hrs by disc diffusion method; type: functional, organism-based
[3] = test system: Acinetobacter radioresistens; assay: Antibacterial activity against Acinetobacter radioresistens at 6.25 to 200 ug/ml after 24 hrs by microwell dilution method; type: functional, organism-based
MOLT-4 = assay: Cytotoxicity against human MOLT4 assessed as cell growth at 10 uM after 48 hrs by SRB assay; type: functional; details: MOLT-4, 48 h, read-out: Activity
BT-549 = assay: Cytotoxicity against human BT549 assessed as cell growth at 10 uM after 48 hrs by SRB assay; type: functional; details: BT-549, 48 h, read-out: Activity
UACC-62 = assay: Cytotoxicity against human UACC62 assessed as cell growth at 10 uM after 48 hrs by SRB assay; type: functional; details: UACC-62, 48 h, read-out: Activity

CC(C(=O)NN1C(=O)CSC1c1ccc(C(F)(F)F)cc1)c1ccc(-c2ccccc2)c(F)c1 (stereo unspecified)
growth at 10 µM (M14): 54.5%
growth at 10 µM (A549): 68.6%
Activity (Micrococcus luteus): inactive
Activity (Staphylococcus cohnii): inactive
growth at 10 µM (OVCAR-4): 58.6%
growth at 10 µM (Hs-578T): 54.2%
growth at 10 µM (ACHN): 59.6%
growth at 10 µM (T47D): 33.4%
growth at 10 µM (NCI-H23): 90.4%
Activity (Aspergillus): inactive
Activity (Photorhabdus luminescens): inactive
Activity (Staphylococcus aureus): inactive
Activity (Klebsiella aerogenes): inactive
growth at 10 µM (HL-60(TB)): 36.9%
growth at 10 µM (NCI-H460): 40.5%
growth at 10 µM (RPMI-8226): 43.3%
growth at 10 µM (UACC-257): 94.4%
growth at 10 µM (CCRF-CEM): 74.7%
growth at 10 µM (HOP-62): 82.1%
growth at 10 µM (UO-31): 58.8%
growth at 10 µM (TK-10): 99.5%
growth at 10 µM (RXF 393): 72.5%
growth at 10 µM (OVCAR-3): 64.3%
growth at 10 µM (MDA-MB-468): 59.4%
Activity (Nakaseomyces glabratus): inactive
growth at 10 µM (IGROV-1): 75.5%
growth at 10 µM (LOX IMVI): 74.5%
Activity (Candida parapsilosis): inactive
inhibition (Hepacivirus hominis): 8%
Activity (Micrococcus lylae): inactive
growth at 10 µM (U-251): 65.2%
growth at 10 µM (HCC 2998): 155%
Activity [1]: inactive
growth at 10 µM (MDA-MB-435): 66.7%
Activity (Proteus vulgaris): inactive
growth at 10 µM (EKVX): 57.9%
Activity [2]: inactive
Activity [3]: inactive
growth at 10 µM (MOLT-4): 43.5%
growth at 10 µM (BT-549): 68%
growth at 10 µM (UACC-62): 50.9%
